{"source": "patent US4353912A", "about": "“N-Haloalkyl nor apomorphines and method of inactivating dopamine receptor sites and enhancing dopaminergic activity therewith” (Northeastern University, priority 1980, dated 1982)", "key": {"[1]": {"target": "T1, dopamine receptors (^3 H-NPA binding sites) (Rattus norvegicus, UniProt P61169)", "T1 sequence (P61169 whole entry)": "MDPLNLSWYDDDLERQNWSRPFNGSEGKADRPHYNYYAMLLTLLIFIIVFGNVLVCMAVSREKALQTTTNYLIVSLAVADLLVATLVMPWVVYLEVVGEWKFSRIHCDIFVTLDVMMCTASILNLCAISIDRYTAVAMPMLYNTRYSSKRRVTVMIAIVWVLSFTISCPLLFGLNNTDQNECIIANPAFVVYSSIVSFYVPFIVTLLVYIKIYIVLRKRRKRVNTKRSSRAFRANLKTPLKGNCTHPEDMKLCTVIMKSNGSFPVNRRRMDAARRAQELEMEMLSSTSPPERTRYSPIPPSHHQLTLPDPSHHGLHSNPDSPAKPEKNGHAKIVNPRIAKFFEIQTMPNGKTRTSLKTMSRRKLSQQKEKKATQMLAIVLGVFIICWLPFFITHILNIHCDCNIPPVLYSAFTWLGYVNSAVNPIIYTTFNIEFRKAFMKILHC"}, "[2]": {"target": "T1, dopamine receptors (^3 H-NPA binding sites)", "test": "In vitro inhibition of ^3 H-NPA binding to rat striatal homogenate", "conditions": "for reversal of inhibition of ^3 H-NPA binding by washing of membranes: FIG. 8"}, "dopamine receptors [3]": {"system": "dopamine receptors", "test": "Apomorphine-induced climbing in mice (climbing index)", "type": "in vivo", "conditions": "for effect on apomorphine climbing: 10 mg/kg s.c.; for effect on apomorphine climbing index: apomorphine 1.0 mg/kg s.c.", "procedure": "Climbing behavior was measured by placing mice in individual cages (20×15×15 cm) lined with wire mesh. A \"climbing index\", i.e., the percentage of time spent climbing during the 30-minute period following the first climb, was determined."}, "dopamine receptors [4]": {"system": "dopamine receptors", "test": "Apomorphine-induced stereotypy", "type": "in vivo", "conditions": "10 mg/kg pretreatment; apomorphine 1 mg/kg", "excerpt": "Apomorphine-induced behavioral characteristics in the rodent are considered to involve dopamine agonist action on striatal and mesolimbic dopamine receptors. […] Among such induced behavioral characteristics are circling, climbing and stereotypy."}, "[5]": {"system": "striatal dopamine receptors", "test": "Apomorphine-induced circling in unilateral striatectomized mice", "type": "in vivo", "procedure": "Among such induced behavioral characteristics are circling, climbing and stereotypy.\nMale albino mice in the weight range of 35-40 grams were used in the determination of circling behavior. The mice were prepared for circling experiments using standard stereotaxic techniques to place unilateral electrolesions in the right caudate-putamen (1.0 mm anterior to bregma, 2.0 mm lateral and 3.5 mm below the skull surface, 1.5 mA/15 s). […] Those mice circling less than 6 revolutions every 2 minutes were excluded from subsequent studies."}, "[6]": {"target": "T2, dopamine-sensitive adenylate cyclase (Rattus norvegicus, UniProt P18901)", "T2 sequence (P18901 whole entry)": "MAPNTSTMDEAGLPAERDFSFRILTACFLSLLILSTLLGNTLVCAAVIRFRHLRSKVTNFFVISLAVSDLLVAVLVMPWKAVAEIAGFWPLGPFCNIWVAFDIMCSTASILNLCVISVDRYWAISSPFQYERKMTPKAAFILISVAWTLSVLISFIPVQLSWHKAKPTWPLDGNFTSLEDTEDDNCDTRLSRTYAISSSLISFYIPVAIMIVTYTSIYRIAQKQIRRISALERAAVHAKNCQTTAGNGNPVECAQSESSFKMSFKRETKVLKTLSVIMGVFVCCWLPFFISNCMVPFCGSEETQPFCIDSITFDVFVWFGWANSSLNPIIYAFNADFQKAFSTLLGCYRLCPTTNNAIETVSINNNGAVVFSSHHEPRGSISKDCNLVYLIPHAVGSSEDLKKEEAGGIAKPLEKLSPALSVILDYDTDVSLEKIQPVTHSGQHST", "T2 sequence (Q04400 whole entry partner)": "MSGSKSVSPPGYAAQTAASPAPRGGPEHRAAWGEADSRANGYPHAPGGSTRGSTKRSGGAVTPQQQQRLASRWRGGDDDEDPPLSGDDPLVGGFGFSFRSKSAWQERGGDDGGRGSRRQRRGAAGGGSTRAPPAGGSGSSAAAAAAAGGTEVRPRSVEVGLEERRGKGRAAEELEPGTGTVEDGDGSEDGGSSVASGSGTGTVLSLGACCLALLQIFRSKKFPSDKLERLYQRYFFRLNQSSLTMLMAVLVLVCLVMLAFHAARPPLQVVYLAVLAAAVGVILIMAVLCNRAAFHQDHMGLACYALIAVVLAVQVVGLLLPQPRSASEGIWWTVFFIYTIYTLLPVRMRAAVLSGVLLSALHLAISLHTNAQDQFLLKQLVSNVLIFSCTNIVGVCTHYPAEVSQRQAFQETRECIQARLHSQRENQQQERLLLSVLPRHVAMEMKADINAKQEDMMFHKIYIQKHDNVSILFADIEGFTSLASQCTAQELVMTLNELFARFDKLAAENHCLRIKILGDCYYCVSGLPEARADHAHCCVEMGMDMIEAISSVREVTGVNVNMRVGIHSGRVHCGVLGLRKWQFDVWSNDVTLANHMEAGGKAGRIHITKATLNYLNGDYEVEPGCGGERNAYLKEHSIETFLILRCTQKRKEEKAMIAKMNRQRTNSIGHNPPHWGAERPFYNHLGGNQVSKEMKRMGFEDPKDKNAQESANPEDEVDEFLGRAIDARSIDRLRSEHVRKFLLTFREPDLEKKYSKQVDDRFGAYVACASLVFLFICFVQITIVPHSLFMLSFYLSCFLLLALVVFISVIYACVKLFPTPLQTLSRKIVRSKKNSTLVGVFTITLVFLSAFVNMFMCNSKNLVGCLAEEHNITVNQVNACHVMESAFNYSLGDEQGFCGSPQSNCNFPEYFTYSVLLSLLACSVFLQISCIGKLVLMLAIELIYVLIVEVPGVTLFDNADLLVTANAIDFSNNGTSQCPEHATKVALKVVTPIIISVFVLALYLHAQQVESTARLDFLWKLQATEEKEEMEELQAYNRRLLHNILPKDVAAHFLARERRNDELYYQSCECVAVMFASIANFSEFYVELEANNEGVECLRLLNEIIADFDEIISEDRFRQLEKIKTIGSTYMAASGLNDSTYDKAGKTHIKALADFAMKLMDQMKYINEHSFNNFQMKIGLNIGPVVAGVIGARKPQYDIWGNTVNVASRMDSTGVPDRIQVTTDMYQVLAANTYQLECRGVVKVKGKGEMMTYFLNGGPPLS", "test": "Inhibition of activation of dopamine-sensitive adenylate cyclase in rat striatal homogenates", "type": "biochemical", "procedure": "Washed tissue, including one specimen without NCA as a control, was then incubated with zero or 50 μM of dopamine in the presence of an excess of adenosine triphosphate for 2.5 minutes at 37° and the level of cyclic adenosine monophosphate in the incubation mixture with and without dopamine was assayed by a protein binding method. The increase in cyclic adenosine monophosphate levels due to the dopamine was estimated for all conditions."}, "dopamine receptors [7]": {"system": "dopamine receptors", "test": "Circling/asymmetry in rats after unilateral intrastriatal injection and apomorphine challenge", "type": "in vivo, rat", "procedure": "A further behavioral model utilized rats (male, Sprague-Dawley, 300±25 g). […] Bilateral guide cannulae were chronically implanted in the rats, using standard stereotaxic techniques, to allow drug/vehicle injection at the center of the caudate-putamen complex (Ant. 8.0, Lat. +3.0, Vert. +1.5, De Groot, 1959). Fourteen days after cannulation, the animals were manually restrained and the drug in a solvent vehicle was injected in a volume of 4 μliters (1 μliter/min) into the right and left striata, respectively. The 4 μliter contained dosages of 10 μg or 40 μg of the drug.\nThe resting asymmetry was particularly evident when the animals were disturbed and was also noted two and five days after the injection of the (-)N-(2-chloroethyl)norapomorphine. By the seventh day the ipsilateral asymmetry was variable and was not apparent by the fourteenth day.\nAgain, as in the circling experiments with the mice, it was apparent that the dopamine inhibitory actions of the drug endured for 2 to 4 days. The recovery of the behavioral response possibly reflects the resynthesis of dopamine receptors."}, "[8]": {"target": "T2, dopamine-sensitive adenylate cyclase", "conditions": "Walton et al., Eur. J. Pharmacol. 52: 231 (1978); cited from earlier work"}}, "note": "Where a name gives a salt, the structure may show the parent alone."}
{"smiles": "CCCN1CCc2cccc3c2C1Cc1ccc(O)c(O)c1-3", "note": "(single isomer, unassigned) [^3 H-NPA, ^3 H-N-n-propylnorapomorphine, reference compound]", "values": [{"measurement": "density of ^3 H-NPA binding sites", "setting": "[1]", "result": "approximately 180 fmol/mg protein"}, {"measurement": "Bmax", "setting": "[2]", "result": 190, "unit": "fmol/mg protein"}]}
{"smiles": "COc1ccc2c(c1OC(C)=O)-c1cc(O)cc3c1C(C2)N(C(=O)CN(CCCl)CCCl)CC3", "note": "(centres unmarked) [6-[2-bis(2-chloroethyl)amino]acetyl-11-acetoxy-2-hydroxy-10-methoxy-apoporphine hemihydrate, reference compound]", "values": [{"measurement": "effect on apomorphine climbing", "setting": "dopamine receptors [3]; four-hour pretreatment", "result": "failed to modify apomorphine climbing"}]}
{"smiles": "COc1ccc2c(c1O)-c1cccc3c1[C@@H](C2)N(CCCl)CC3", "note": "[(-)N-(2-chloroethyl)norapocodiene.HCl, reference compound]", "values": [{"measurement": "effect on apomorphine climbing", "setting": "dopamine receptors [3]; four-hour pretreatment", "result": "failed to modify apomorphine climbing"}]}
{"smiles": "OCCN1CCc2cccc3c2[C@H]1Cc1ccc(O)c(O)c1-3", "note": "[(-)N-(2-hydroxyethyl)norapomorphine.HCl]", "values": [{"measurement": "effect on apomorphine climbing", "setting": "dopamine receptors [3]; 90-minute pretreatment", "result": "failed to modify apomorphine climbing"}, {"measurement": "reversal of inhibition of ^3 H-NPA binding by washing of membranes", "setting": "[2]; 5×10^-7 M", "result": "reversed"}]}
{"smiles": "Oc1ccc2c(c1O)-c1cccc3c1[C@@H](C2)N(CCCl)CC3", "note": "[NCA]", "values": [{"measurement": "effect on apomorphine climbing index", "setting": "dopamine receptors [3]; 10 mg/kg i.p. pretreatment", "result": "reduced this index"}, {"measurement": "effect on apomorphine climbing index", "setting": "dopamine receptors [3]; 20 mg/kg i.p. pretreatment", "result": "greatly reduced"}, {"measurement": "duration of reduction of climbing index", "setting": "dopamine receptors [3]; after i.p. administration", "result": "up to between four and five days"}, {"measurement": "effect on submaximal stereotypic effect of apomorphine (repetitive sniffing, periodic biting, continuous biting)", "setting": "dopamine receptors [4]", "result": "failed to modify"}, {"measurement": "reduction of number of ^3 H-NPA binding sites", "setting": "[1]; 40 μg NCA intrastriatal, day 2", "result": "approximately 50%"}, {"measurement": "number of sites available for ^3 H-NPA binding", "setting": "[1]; 40 μg NCA intrastriatal, days 7 and 14", "result": "returned to control values"}, {"measurement": "IC50", "setting": "[2]", "result": 1800, "unit": "nM"}, {"measurement": "reversal of inhibition of ^3 H-NPA binding by washing of membranes", "setting": "[2]; 5×10^-6 M", "result": "not reversed"}, {"measurement": "reversal of prevention of ^3 H-NPA binding by washing", "setting": "[2]; NCA 10^-5 M, repeated washing", "result": "not reversed by repeated washing"}, {"measurement": "inhibition of ^3 H-NPA binding in the presence of blocking agents", "setting": "[2]; high concentrations of phentolamine and propranolol, NCA 3×10^-5 M", "result": "also apparent"}, {"measurement": "inhibition of apomorphine-induced circling", "setting": "[5]; 1.0 mg/kg s.c., apomorphine 0.5 mg/kg s.c., 4 hours to 7 days after administration", "result": "essentially no inhibition"}, {"measurement": "reduction in circling", "setting": "[5]; higher dosage levels (2.0 or 4.0 mg/kg s.c.), after 2 days", "result": "still apparent"}, {"measurement": "reduction in circling", "setting": "[5]; highest dosage level (4.0 mg/kg s.c.), after 5 days", "result": 39, "unit": "%"}, {"measurement": "percent dopamine stimulation of cAMP production at 10 µM", "setting": "[6]; 10 min, NCA 10 μM, 10 min 37° C. preincubation, washed, 50 μM dopamine", "result": 84, "unit": "%"}, {"measurement": "percent dopamine stimulation of cAMP production at 30 µM", "setting": "[6]; 10 min, NCA 30 μM, 10 min 37° C. preincubation, washed, 50 μM dopamine", "result": 44, "unit": "%"}, {"measurement": "percent dopamine stimulation of cAMP production at 75 µM", "setting": "[6]; 10 min, NCA 75 μM, 10 min 37° C. preincubation, washed, 50 μM dopamine", "result": 8, "unit": "%"}, {"measurement": "inhibition at 10 µM", "setting": "[6]; NCA 10 μM", "result": 16, "unit": "%"}, {"measurement": "inhibition at 30 µM", "setting": "[6]; NCA 30 μM", "result": 56, "unit": "%"}, {"measurement": "inhibition at 75 µM", "setting": "[6]; NCA 75 μM", "result": 92, "unit": "%"}, {"measurement": "circling on apomorphine challenge", "setting": "dopamine receptors [7]; 40 μg intrastriatal, apomorphine 0.5 mg/kg s.c., four hours and two days, to a lesser extent 5 days after administration", "result": "precipitated a clear circling behavior"}, {"measurement": "ipsilateral asymmetry/circling movements after unilateral injection into the caudate-putamen", "setting": "dopamine receptors [7]; 10 and 40 μg intrastriatal", "result": "induced ipsilateral asymmetry/circling movements within an hour"}, {"measurement": "resting ipsilateral asymmetry", "setting": "dopamine receptors [7]; fourteenth day", "result": "not apparent"}, {"measurement": "resting ipsilateral asymmetry", "setting": "dopamine receptors [7]; seventh day", "result": "variable"}, {"measurement": "resting ipsilateral asymmetry", "setting": "dopamine receptors [7]; two and five days after injection", "result": "noted"}]}
{"smiles": "CN1CCc2cccc3c2[C@H]1Cc1ccc(O)c(O)c1-3", "note": "[apomorphine]", "values": [{"measurement": "circling behavior", "setting": "[5]; 0.25-1 mg/kg apomorphine, dose-dependent", "result": "2-10 revolutions every 12 minutes"}]}
{"smiles": "CC(COc1ccccc1)N(CCCl)Cc1ccccc1", "note": "(centres unmarked) [phenoxybenzamine]", "values": [{"measurement": "action on dopamine-sensitive adenylate cyclase", "setting": "[8]", "result": "irreversible blocking action"}]}
